Assay results published in patent US20260182575A1, “MOLECULES HAVING PESTICIDAL UTILITY AND INTERMEDIATES AND PROCESSES RELATED THERETO” (CORTEVA AGRISCIENCE LLC, priority 2022, published 2026).
Several values for one entry are separate records, joined by “and”; a condition that tells them apart may be missing. Equal values may be shown once.

How the values were obtained:
Format in all cases: in vivo
[1] = tested on: Sweet Potato Whitefly (Bemisia tabaci, BEMITA, SPW); experiment: Bioassay 2: sweet potato whitefly, cotton seedling foliar spray; conditions: AI alone
[2] = tested on: Fall Armyworm (Spodoptera frugiperda, LAPHFR, FAW); experiment: Bioassay 7: fall armyworm, artificial diet, 96 well plate
Procedure: The test solutions were tested against CEW, FAW, BAW, and SBL using the following procedure: an artificial lepidopteran diet (Multispecies Lepidopteran Diet, Southland Products) was distributed in 96 well plate. Twenty μL of test solution was pipetted onto a cell in the bioassay plate. […] Each treatment was replicated 5 times for each species. Approximately five first instar CEW, FAW, BAW, or SBL larva were placed on top of the diet in each cell and was contained with a clear perforated adhesive lid. Test trays were held at approximately 25° C. and ambient relative humidity prior to grading. After five days, the number of cells where all the larvae were dead were recorded as 100% and averaged across all replicates; then the percent control was measured using Abbott's correction formula (W. S. Abbott, J. Econ. Entomol. 18 (1925), pp. 265-267) as follows:
where X=No. of live larvae on solvent check and Y=No. of live larvae on treated diet. In Table 7 the “Expected % Control” was calculated using the method described in Colby S. R., Weeds, 1967, 15, 20-22. Bioassay 8: Western Corn Rootworm (Diabrotica virgifera virgifera, DIABVI, “WCR”)

[3] = tested on: Soybean Looper (Chrysodeixis includens, PSEPIN, SBL); experiment: Bioassay 7: soybean looper, artificial diet, 96 well plate; conditions: CL; F1 alone at 0.000005 wt %
[4] = tested on: Western Corn Rootworm (Diabrotica virgifera virgifera, DIABVI, WCR); experiment: Bioassay 8: western corn rootworm, soil drench, corn root protection; conditions: F1 alone, DIABVI (CRW), 10 mL soil drench, corn nodal root length after 13 days
Procedure: Corn seeds were planted in steam pasteurized soil filled greenhouse pots. Western corn rootworm Diabrotica virgifera virgifera eggs supplied from the Corteva Agriscience in Johnston, IA US, were suspended in a 0.08% agar solution added into the soil. Stock solutions of F1 and active ingredients were prepared at a concentration of either 250 or 500 ugai/10 mL for F1 and active ingredients at the ratios of (F1:AI) 1:0.004; 1:0.01; 1:0.02; 1:0.04; 1:0.08; 1:0.1; 1:0.15; 1:0.2; 1:0.4; 1:2; or 1:4, using a 1:1 solution of acetone:water as a diluent. A soil application of solutions were applied as a 10 mL drench over the soil. Plants were grown in the greenhouse for 13 days at 25 C after which the roots were removed from the soil, washed, and measured to determine the length of the median nodal roots. The measured lengths were compared to the infested and un-infested untreated checks to determine the mean percent control offered to protect the corn roots.

[5] = tested on: Beet Armyworm (Spodoptera exigua, LAPHEG, BAW); experiment: Bioassay 7: beet armyworm, artificial diet, 96 well plate
[6] = tested on: Corn Earworm (Helicoverpa zea, HELIZE, CEW); experiment: Bioassay 7: corn earworm, artificial diet, 96 well plate
[7] = tested on: Sweet Potato Whitefly (Bemisia tabaci, BEMITA, SPW); experiment: Bioassay 2: sweet potato whitefly, cotton seedling foliar spray; conditions: F1 alone

SMILES | Average % Control AI ([1]; Wt % AI 0.000001, 7-9 days) [%] | Average % Control AI ([1]; Wt % AI 0.00001, 7-9 days) [%] | Average % Control F1 ([2]; F1 alone at 0.0000025 wt %) [%] | Average % Control F1 ([2]; F1 alone at 0.000005 wt %) [%] | Average % Control F1 [3] [%] | Average % Control F1 ([4]; UgActive F1 250) | Average % Control F1 ([4]; UgActive F1 500) [%] | Average % Control F1 ([5]; F1 alone at 0.0000025 wt %) [%] | Average % Control F1 ([5]; F1 alone at 0.00001 wt %) [%] | Average % Control F1 ([6]; F1 alone at 0.00002 wt %) [%] | Average % Control F1 ([6]; F1 alone at 0.00004 wt %) | Average % Control F1 ([7]; F1 0.1, 7-9 days after treatment) [%] | Average % Control F1 ([7]; F1 10, 7-9 days after treatment)
CN1COCN(Cc2cnc(Cl)s2)/C1=N\[N+](=O)[O-] [Thiamethoxam] | 5.8 | 35.9 |  |  |  |  |  |  |  |  |  |  | 
Cc1ccc(COCC(F)(F)F)c(N2C(=O)CS/C2=N\C(=O)Nc2ccc(-c3ncn(-c4ccc(OC(F)(F)F)cc4)n3)cc2F)c1 [F1] |  |  | 0.0 | 62.5 | 80.0 | 97.8% and 88.8% | 83.9 | 12.5 | 40.0 | 0.0 | 62.5% and 50.0% | 0.0 | 37.4% and 50.1%
C[C@]1(COC(=O)C2CC2)[C@@H]2C[C@H](O)[C@@]3(C)Oc4cc(-c5cccnc5)oc(=O)c4[C@H](O)[C@@H]3[C@@]2(C)CC[C@@H]1OC(=O)C1CC1 [Afidopyropen] |  | 0.0 |  |  |  |  |  |  |  |  |  |  | 
